Reference: article PMC10979501, “Protein Structure-Based Organic Chemistry-Driven Ligand Design from Ultralarge Chemical Spaces” (ACS Central Science, 2024)
Read-outs that look alike come from different tables or passages of the source. One block for each compound: values may come before it.

Assays:
[1] = target: T1, human recombinant DRD3 (Homo sapiens, UniProt P35462); experiment: [3H]-methylspiperone binding inhibition, human recombinant DRD3 in CHO cells (Eurofins Discovery assay #48); settings: for inhibition at 10 µM: 10 μM competitor, single concentration, mean of two independent experiments, CHO cells, read-out: percentage of inhibition of [3H]-methylspiperone binding; for ligand efficiency (LE): SpaceDock hits, LE as in ref 53; for Ki: from six concentrations dose-response curves, read-out: inhibition constant (Ki)
T1 construct: host or cells: CHO cells
Experimental: Fig. S8. Binding of six SpaceDock hits to the human dopamine D3 receptor, expressed by the
percentage of inhibition of [3H]‐methylspiperone binding to human recombinant DRD3 in CHO cells
(Eurofins‐Discovery assay #48). Inhibition constants (Ki) were determined from six concentrations

[2] = target: human DRD3; settings: cited from earlier work

T1 sequence (P35462 whole entry): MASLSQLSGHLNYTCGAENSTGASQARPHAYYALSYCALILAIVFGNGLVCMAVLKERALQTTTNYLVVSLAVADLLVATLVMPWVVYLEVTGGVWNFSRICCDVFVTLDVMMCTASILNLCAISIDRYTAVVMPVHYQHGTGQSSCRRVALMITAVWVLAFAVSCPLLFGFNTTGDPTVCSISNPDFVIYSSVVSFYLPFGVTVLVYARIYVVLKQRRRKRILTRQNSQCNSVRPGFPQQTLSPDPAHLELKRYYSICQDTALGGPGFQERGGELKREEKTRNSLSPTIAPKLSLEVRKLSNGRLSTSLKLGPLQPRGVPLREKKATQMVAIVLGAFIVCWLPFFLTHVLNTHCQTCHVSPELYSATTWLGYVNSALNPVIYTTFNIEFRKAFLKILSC

SMILES: CCc1cc2c(c(C(=O)NCCN(C(C)C)C3CC3)c1)OCC2 [#1]
inhibition at 10 µM [1]: 95.1 ± 1.1%
ligand efficiency (LE) [1]: 0.40
Ki [1]: 0.36 µM

SMILES: CCCN(CCC)CCNC(=O)c1cccc2c(C)c(C)[nH]c12 [#25]
inhibition at 10 µM [1]: 90.7 ± 1.6%
ligand efficiency (LE) [1]: 0.36
Ki [1]: 1.4 µM

SMILES: CCc1ccc2occ(C(=O)NCC3CCCN(CC)C3)c2c1 (stereo not drawn) [#33]
inhibition at 10 µM [1]: 34.3 ± 1.3%

SMILES: CCCN(CCC)CCNC(=O)C1CCc2cnn(C)c2C1 (stereo not drawn) [#35]
inhibition at 10 µM [1]: 13.7 ± 1.2%

SMILES: CC(C)N(CCNC(=O)c1cn(C)nc1C1CCOC1)C1CC1 (stereo not drawn) [#36]
inhibition at 10 µM [1]: 21.3 ± 0.4%

SMILES: CCCN1CCCC1CNC(=O)c1c[nH]cc1-c1ccccc1 (stereo not drawn) [#66]
inhibition at 10 µM [1]: 88.2 ± 0.8%
ligand efficiency (LE) [1]: 0.40
Ki [1]: 0.32 µM

SMILES: CCc1oc(C)cc1C(=O)NCC1CCN(CC)CC1 [#97]
inhibition at 10 µM [1]: 13.6 ± 0.2%

SMILES: CCN(CC)CCNC(=O)c1cc(Cl)c(N)cc1OC [CHEMBL86]
Ki ([2]; closest ChEMBL ligand): 0.023 µM

SMILES: COc1cc2c(c(C(=O)NC[C@H]3CCCN3Cc3ccccc3)c1)OCC2 [CHEMBL148352]
Ki ([2]; closest ChEMBL ligand): 0.12 µM

SMILES: Cc1ccc(C)c(C(=O)NCCCCN2CCN(c3cc(C)ccc3C)CC2)c1 [CHEMBL1258495]
Ki ([2]; closest ChEMBL ligand): 0.028 µM

SMILES: C#CC1CCC(N(CCC)CCCCNC(=O)c2ccc(OCCCc3cnn(CCCC)n3)c(OC)c2)CC1 (stereo not drawn) [CHEMBL2397478]
Ki ([2]; closest ChEMBL ligand): 0.001 µM

SMILES: CCCN(CCCCNC(=O)c1cccc2cc[nH]c12)CC1CC1c1cccc(F)c1 (stereo not drawn) [CHEMBL4590839]
Ki ([2]; closest ChEMBL ligand): 0.0188 µM

SMILES: CCc1cc(Cl)c(OC)c(C(=O)NC[C@@H]2CCCN2CC)c1O [Eticlopride, eticlopride]
Ki ([2]; eticlopride, in Figure 4A): 0.00012 µM

Next, values leading:

inhibition at 10 µM [1]: 80.2 ± 0.5%
ligand efficiency (LE) [1]: 0.39
Ki [1]: 1.57 µM
SMILES: CCCN(CCNC(=O)c1cccc2sccc12)C(C)C [#107]

inhibition at 10 µM [1]: -5.1 ± 4.5%
SMILES: CCN(CC)CC(CC)(CC)NC(=O)c1cccc2nc(C)sc12 [#110]

inhibition at 10 µM [1]: 88.7 ± 0.1%
ligand efficiency (LE) [1]: 0.43
Ki [1]: 0.401 µM
SMILES: CCCN(CC)CCNC(=O)c1cc(Br)cc2[nH]cnc12 [#142]

inhibition at 10 µM [1]: 72.6 ± 0.9%
ligand efficiency (LE) [1]: 0.39
Ki [1]: 1.65 µM
SMILES: CCCN(CC)CCNC(=O)c1nn(C)c2c1CSCC2 [#161]

inhibition at 10 µM [1]: 4.7 ± 1.8%
SMILES: Cc1nc2sccn2c1C(=O)NCC1CCCCC1N1CCCC1 (stereo not drawn) [#215]

inhibition at 10 µM [1]: 3.5 ± 3.1%
SMILES: CCN1CCC[C@H]1CNC(=O)c1c(-c2ccccc2)noc1C [#239]

inhibition at 10 µM [1]: 26.2 ± 0.8%
SMILES: Cc1ccc(C(CNC(=O)c2cc(C)nc3c2cnn3C)N2CCCC2)cc1 (stereo not drawn) [#252]

inhibition at 10 µM [1]: 44.4 ± 0.8%
SMILES: CCCN(CCC)CCNC(=O)c1cccc2oc(C)nc12 [#256]
